Here are results for six molecules from patent US20030138857A1, “Method of inhibiting atherosclerotic plaque destabilization” (priority 2002, published 2003).

The test relates to VSMCs. Put plainly: Monocyte/VSMC co-culture apoptosis assay (Hoechst 33342/propidium iodide, apoptotic index). The format is cell-based, human. As to conditions: for inhibition of M-CSF-triggered, monocyte-induced apoptosis of VSMCs: eptifibatide 5 μg/ml, tirofiban 0.35 μg/ml, compared with abciximab; for VSMC apoptosis: M-CSF 100 ng/mL. As for the experimental part:
VSMCs (passage 3 to 7) were obtained from Clonetics and from heart donors. VSMC identity was confirmed by α-smooth muscle actin staining. VSMCs initially were grown in growth medium (SmGM2; Clonetics) with 5% serum, and at 60% to 70% confluence, the media was changed to a serum-free medium (50:50 of DMEM/F12 media with 5 mL of ITS, PSA, L-glutamine, and nonessential amino acids per 500 mL of solution). After 72-hour incubation in the serum-free medium, VSMCs were co-cultured with monocytes. Co-culture experiments were also conducted with the use of SmGM2 media (5% serum) throughout the experiment.
Leukocytes were isolated from buffy coat preparations (American Red Cross) by means of the Ficoll-Paque gradient method. Monocytes were isolated by means of an indirect magnetic labeling system and a monocyte isolation kit. The purity of monocytes obtained was […], which was confirmed by flow cytometry with anti-CD-14-FITC and anti-CD45-PE antibodies.
Freshly isolated monocytes were added 3:1 to VSMCs. Conditions included wells with VSMCs alone (with or without M-CSF) and VSMCs co-cultured with monocytes (with and without M-CSF). Experiments were conducted with either no serum or 5% serum in media. Experiments were also repeated by preincubating VSMCs with a pan-caspase inhibitor (1 hour at 37° C.) (ZVAD-fmk [10 μmol/L/mL]; sequence Z-Val-Ala-Asp [Ome]-CH2 F), before addition of the MMs and M-CSF. Media and ZVAD-fmk were replenished every 24 hours. Specific controls were used for VSMCs with ZVAD-fmk.
Abciximab, aggrastat, and eptifibatide, 3 established parenteral glycoprotein (GP) IIb/IIIa blockers, were added to MM and VSMC co-cultures before exposure to M-CSF. Controls were used for VSMCs with abciximab, aggrastat, and eptifibatide separately, with or without M-CSF. All experiments were done in triplicate.
Experiments were done with the use of recombinant human IL-1 β (100 to 1000 pg/mL) in place of M-CSF. Anti-human M-CSF neutralizing antibody (1 μg/mL) was added along with IL-1 β, and the VSMCs plus monocytes were co-cultured for 72 hours. Isotype control, IgG2a (clone 20102.1), was used for VSMCs cultured with monocytes and IL-1 β.
After 72-hour incubation, MM and VSMC co-cultures were stained live with the Vybrant Apoptosis kit (Molecular Probes), consisting of 2 nuclear stains, Hoechst 33342 (5 mg/mL) and propidium iodide (1 mg/mL). After incubation for 20 minutes at 37° C., coverslips were washed and the cell death index was estimated as previously described (Webster et al, J. Clin. Invest. 104:239-252 ([…])) (apoptotic index=dead cells/[live cells+dead cells]×100).

Where “and” joins values, the source holds several entries; their conditions need not be identical. Equal values may be shown once. Where a SMILES comes first, the peptide text is derived from it. The star is where a group is joined. Cbz = O=C(OCc1ccccc1)*; CH2F = FC*

As to `COC(=O)C[C@H](NC(=O)[C@H](C)NC(=O)[C@@H](NC(=O)OCc1ccccc1)C(C)C)C(=O)CF` [ZVAD-fmk, Z-Val-Ala-Asp [Ome]-CH2 F, reference compound] (Cbz-Val-Ala-Asp(OMe)-CH2F), the “apoptosis induced by co-culture with activated monocytes” value (VSMCs preincubated with ZVAD-fmk (10 μmol/L/mL)) is given as “completely abrogated”. Also, for the setting “VSMCs preincubated with ZVAD-fmk (10 μmol/L/mL), co-cultured with monocytes and M-CSF, 72 h”, the “apoptotic index of VSMCs” value stood at 15.4±0.4%.
As to `N=C(N)NCCCC[C@@H]1NC(=O)CCSSC[C@@H](C(N)=O)NC(=O)[C@@H]2CCCN2C(=O)[C@H](Cc2c[nH]c3ccccc23)NC(=O)[C@H](CC(=O)O)NC(=O)CNC1=O` [eptifibatide, reference compound] (HELM PEPTIDE1{[O=C(CCS[*:3])[*:2]].[N=C(N)NCCCC[C@H](N[*:1])C(=O)[*:2]].G.D.W.P.C.[am]}$PEPTIDE1,PEPTIDE1,1:R3-7:R3$$$V2.0), the “inhibition of M-CSF-triggered, monocyte-induced apoptosis of VSMCs” value was “unable to confer similar protection”. Also, where the note is “eptifibatide 5 μg/mL, VSMCs with monocytes and M-CSF”, the cell death index was determined as 51.3±2.2%.
In the case of `CCCCS(=O)(=O)N[C@@H](Cc1ccc(OCCCCC2CCNCC2)cc1)C(=O)O` [tirofiban, reference compound], the “inhibition of M-CSF-triggered, monocyte-induced apoptosis of VSMCs” value is recorded as “unable to confer similar protection”. Moreover, the cell death index (tirofiban 0.35 μg/mL, VSMCs with monocytes and M-CSF) is given as 65.0±3.4%.
“IL-1: recombinant human IL-1 β, monocyte-activating cytokine (R&D Systems)”: the “apoptotic index of VSMCs” value (VSMCs with monocytes and IL-1 100 pg/mL in place of M-CSF) is 10.5±2.4%. Also, the “monocyte-induced VSMC death” value is, setting by setting: (VSMCs with monocytes and IL-1 500 pg/mL) 59.5±3.5%; (VSMCs with monocytes and IL-1 1000 pg/mL (1 ng/mL)) 59±3.8%.

B1: M-CSF: recombinant macrophage colony-stimulating factor (R&D Systems), hematopoietic growth factor (protein, UniProt P09603 33-554, looked up)
Macrophage colony-stimulating …: EEVSEYCSHMIGSGHLQSLQRLIDSQMETSCQITFEFVDQEQLKDPVCYLKKAFLLVQDIMEDTMRFRDNTPNAIAIVQLQELSLRLKSCFTKDYEEHDKACVRTFYETPLQLLEKVKNVFNETKNLLDKDWNIFSKNCNNSFAECSSQDVVTKPDCNCLYPKAIPSSDPASVSPHQPLAPSMAPVAGLTWEDSEGTEGSSLLPGEQPLHTVDPGSAKQRPPRSTCQSFEPPETPVVKDSTIGGSPQPRPSVGAFNPGMEDILDSAMGTNWVPEEASGEASEIPVPQGTELSPSRPGGGSMQTEPARPSNFLSASSPLPASAKGQQPADVTGTALPRVGPVRPTGQDWNHTPQKTDHPSALLRDPPEPGSPRISSLRPQGLSNPSTLSAQPQLSRSHSSGSVLPLGELEGRRSTRDRRSPAEPEGGPASEGAARPLPRFNSVPLTDTGHERQSEGSFSPQLQESVFHLLVPSVILVLLAVGGLLFYRWRRRSHQEPQRADSPLEQPEGSPLTQDDRQVELPV
For the molecule B1, the VSMC apoptosis is 66.3±1.8% (VSMCs in direct contact with activated monocytes) and 21.0±1.0% (monocytes separated from VSMCs by porous insert (3-μm pores)). In addition, the “apoptotic index of VSMCs” value by setting is: (VSMCs cultured with M-CSF (100 ng/mL) but without monocytes) 15.7±1.5%; (VSMCs cultured with both M-CSF (100 ng/mL) and monocytes, 4 sets of experiments) 58.8±3.3%; (VSMCs with M-CSF-activated monocytes, no inhibitor (comparison group of later experiments; M-CSF concentration not given)) 60±2.1% and 60.0±3.0% and 51.9±1.6% and 51.9±1.8%.

B2: abciximab: chimeric monovalent and humanized monoclonal antibody Fab fragment; GP IIb/IIIa blocker that binds Mac-1 (antibody, chains of the INN, looked up, V domains shown)
VH: EVQLQQSGTVLARPGASVKMSCEASGYTFTNYWMHWVKQRPGQGLEWIGAIYPGNSDTSYIQKFKGKAKLTAVTSTTSVYMELSSLTNEDSAVYYCTLYDGYYVFAYWGQGTLVTVSA
VL: EIVLTQSPVTLSVTPGDSVSLSCRASRDISNNLHWFQQTSHESPRLLIKYASQSMSGIPSRFSGSGSGTDFTLSINSVETEDFGMYFCQQTNSWPYTFGGGTKLEIK
modifications: Fab
On to B2, for which the “apoptotic index of VSMCs” value is, setting by setting: (abciximab 7 μg/mL, VSMCs with monocytes and M-CSF) 19.1±2.3% and 19.1±2.2%; (abciximab 7 μg/mL, VSMCs with monocytes and M-CSF, listed as Abciximab) 19.1±2.2%.
